One assay concerns ECHCO. Put plainly: Example I postemergence foliar-applied, greenhouse, direct seeded rice weeds. In kind it is in vivo, Echinochloa colona (L.) Link. The text has this: Seeds or nutlets of the desired test plant species were planted in a soil matrix prepared by mixing a loam or sandy loam soil (e.g., 28.6 percent silt, 18.8 percent clay, and 52.6 percent sand, with a pH of about 5.8 and an organic matter content of about 1.8 percent) and calcareous grit in an 80 to 20 ratio. The soil matrix was contained in plastic pots with a volume of 1 quart and a surface area of 83.6 square centimeters (cm^2). When required to ensure good germination and healthy plants, a fungicide treatment and/or other chemical or physical treatment was applied. The plants were grown for 8-22 days in a greenhouse with an approximate 14 hr. photoperiod which was maintained at about 29° C. during the day and 26° C. during the night. Nutrients (Peters Excel® 15-5-15 5-Ca 2-Mg and iron chelate) were applied in the irrigation solution as needed and water was added on a regular basis. Supplemental lighting was provided with overhead metal halide 1000-Watt lamps as necessary. The plants were employed for testing when they reached the first through fourth true leaf stage.
(§1) Treatments consisted of the acid or esters of 4-amino-3-chloro-5-fluoro-6-(4-chloro-2-fluoro-3-methoxy-phenyl)pyridine-2-carboxylic acid (Compound A), each formulated as an SC (suspension concentrate), and various herbicidal components alone and in combination.
Other herbicidal components were applied on an acid equivalent (ae) or active ingredient (ai) basis and included acetyl coA carboxylase (ACCase)-inhibiting herbicides (cyclohexanedione and aryloxyphenoxypropionate chemical classes) cyhalofop-butyl formulated as Clincher® SF (285 gr ai/L EC), diclofop-methyl formulated as Hoelon® 3EC, fenoxaprop-p-ethyl+isoxadifen-ethyl formulated as RiceStar® HT (0.58 lb./gal EC), fenoxaprop-p-ethyl+mefenpyr diethyl formulated as Puma® IEC, metamifop formulated as Metamifop EC, haloxyfop-methyl formulated as Gallant Super®, fluazifop-p-butyl formulated as Fusilade® DX, quizalofop-p-ethyl formulated as Assure® II, profoxydim formulated as Aura® 20EC, clethodim applied as Intensity®, sethoxydim formulated as Poast®, and tralkoxydim formulated as Achieve®.
(§2) Treatment requirements were calculated based upon the rates being tested, the concentration of active ingredient or acid equivalent in the formulation, and a 12 mL application volume at a rate of 187 L/ha.
For treatments comprised of formulated compounds, measured amounts of compounds were placed individually in 25 mL glass vials and diluted in a volume of 1.25% (v/v) Agri-Dex® crop oil concentrated to obtain 12× stock solutions. […] Application solutions were prepared by adding an appropriate amount of each stock solution (e.g., 1 mL) and diluted to the appropriate final concentrations with the addition of 10 mL of an aqueous mixture of 1.25% (v/v) crop oil concentrate so that the final spray solutions contained 1.25+/−0.05% (v/v) crop oil concentrate.
All stock solutions and applications solutions were visually inspected for compound compatibility prior to application. Spray solutions were applied to the plant material with an overhead Mandel track sprayer equipped with a 8002E nozzles calibrated to deliver 187 L/ha over an application area of 0.503 m^2 at a spray height of 18 to 20 inches (46 to 50 cm) above average plant canopy height. Control plants were sprayed in the same manner with the solvent blank.
The treated plants and control plants were placed in a greenhouse as described above and watered by sub-irrigation to prevent wash-off of the test compounds. After approximately 3 weeks, the condition of the test plants as compared with that of the untreated plants was determined visually and scored on a scale of 0 to 100 percent where 0 corresponds to no injury or growth inhibition and 100 corresponds to complete kill. […]

The next assay relates to IPOHE. The assay is described as above. In kind it is in vivo, Ipomoea hederacea Jacq. The procedure, abridged: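 Foliar spray, 187 L/ha, 1.25% (v/v) COC; plants at 1st–4th true leaf, greenhouse ~29/26 °C, 14 h light. Compound A acid/esters (SC) ± ACCase inhibitors, rates on ae/ai basis. Visual 0–100% injury vs untreated at ~3 wk; Colby expected values.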
The test system of another assay is ECHCG. The assay can be described thus: Example II in-water applied, greenhouse, transplanted paddy rice weeds. In kind it is in vivo, Echinochloa crusgalli (L.) Beauv. As for the experimental part: Applications were made by injecting with a pipetter appropriate amounts of the application solutions, individually and sequentially, into the aqueous layer of the paddy. Control plants were treated in the same manner with the solvent blank. Applications were made so that all treated plant material received the same concentrations of acetone and crop oil concentrate.
The treated plants and control plants were placed in a greenhouse as described above and water was added as needed to maintain a paddy flood. After approximately 3 weeks the condition of the test plants as compared with that of the untreated plants was determined visually and scored on a scale of 0 to 100 percent where 0 corresponds to no injury or growth inhibition and 100 corresponds to complete kill.
(§3) Colby's equation was used to determine the herbicidal effects expected from the mixtures (Colby, S. R. 1967. Calculation of the synergistic and antagonistic response of herbicide combinations. Weeds 15:20-22.).
(§4) The following equation was used to calculate the expected activity of mixtures containing two active ingredients, A and B: Expected=A+B−(A×B/100)

Another assay deals with LOLMU. Put plainly: Example III postemergence foliar-applied, greenhouse, weeds common to row crops such as corn and soybeans. In kind it is in vivo, Lolium multiflorum Lam.
Source text: Seeds or nutlets of the desired test plant species were planted in a soil matrix prepared by mixing a loam or sandy loam soil (e.g., 28.6 percent silt, 18.8 percent clay, and 52.6 percent sand, with a pH of about 5.8 and an organic matter content of about 1.8 percent) and calcareous grit in an 80 to 20 ratio. The soil matrix was contained in plastic pots with a surface area of 84.6 square centimeters (cm^2) and a volume of 560 cubic centimeters (cm^3). When required to ensure good germination and healthy plants, a fungicide treatment and/or other chemical or physical treatment was applied. The plants were grown for 7-31 days (d) in a greenhouse with an approximate 15 hour (h) photoperiod which was maintained at about 23-29° C. during the day and 22-28° C. during the night. Nutrients (Peters Excel® 15-5-15 5-Ca 2-Mg) and water were added on a regular basis and supplemental lighting was provided with overhead metal halide 1000-Watt lamps as necessary. The plants were employed for testing when they reached the first, second, or third true leaf stage.
as §2, §1
Other herbicidal components were applied on an acid equivalent basis and included acetyl coA carboxylase (ACCase)-inhibiting herbicide (cyclohexanedione and aryloxyphenoxypropionate chemical classes) quizalofop-p-ethyl formulated as Assure® II.
All stock solutions and applications solutions were visually inspected for compound compatibility prior to application. Compound requirements are based upon a 12 mL application volume at a rate of 187 liters per hectare (L/ha). Formulated compounds were applied to the plant material with an overhead Mandel track sprayer equipped with 8002E nozzles calibrated to deliver 187 L/ha over an application area of 0.503 square meters (m^2) at a spray height of 18 to 20 inches (46 to 50 cm) above the average plant canopy height. Control plants were sprayed in the same manner with the solvent blank.
The treated plants and control plants were placed in a greenhouse as described above and watered by sub-irrigation to prevent wash-off of the test compounds. After approximately 2 weeks, the condition of the test plants as compared with that of the untreated plants was determined visually and scored on a scale of 0 to 100 percent where 0 corresponds to no injury or growth inhibition and 100 corresponds to complete kill.
as §3, §4

SMILES strings stand for the structures. “And” between values parts separate entries of the source, which are not always exact repeats. Equal entries are not always repeated.

With `COc1c(Cl)ccc(-c2nc(C(=O)O)c(Cl)c(N)c2F)c1F` [Compound A Acid, 4-amino-3-chloro-6-(4-chloro-2-fluoro-3-methoxyphenyl)-5-fluoropyridine-2-carboxylic acid], the “Visual Weed Control (%) - 20 DAA ECHCO Obs” value in the assay with ECHCO (4.38 gae/ha) is listed as 40%; with ECHCO (8.75 gae/ha) it was 60%; in the assay with ECHCO (17.5 gae/ha) it was 85%. Also, the results for the “Visual Weed Control (%) - 19 DAA IPOHE Obs” value with IPOHE (4.38 gae/ha), with IPOHE (8.75 gae/ha) and in the assay with IPOHE (17.5 gae/ha) were 0%, 10% and 35%, respectively. Also, the “Visual Weed Control (%) - 20 DAA IPOHE Obs” value with IPOHE (4.38 gae/ha) is 10% and 0%; in the assay with IPOHE (8.75 gae/ha) it was 30% and 20%; with IPOHE (17.5 gae/ha), 40%; with IPOHE (19.4 gae/ha), 15%. In addition, the “Visual Weed Control (%) - 24 DAA IPOHE Obs” value in the assay with IPOHE (4.38 gae/ha) was determined as 10%; in the assay on IPOHE (8.75 gae/ha) it was 10%; with IPOHE (17.5 gae/ha), 30%. The “Visual Weed Control (%) - 22 DAA ECHCG Obs” value is on record as 20% in the assay on ECHCG (16 gae/ha) and 25% with ECHCG (32 gae/ha). Moreover, the “Visual Weed Control (%) - 14 DAA LOLMU Obs” value was 0% in the assay with LOLMU (Compound A Acid 3.75 gae/ha), 10% in the assay with LOLMU (Compound A Acid 7.5 gae/ha) and 10% in the assay with LOLMU (Compound A Acid 15 gae/ha).

Regarding `COc1c(Cl)ccc(-c2nc(C(=O)OCc3ccccc3)c(Cl)c(N)c2F)c1F` [Compound A Benzyl Ester, benzyl ester of 4-amino-3-chloro-5-fluoro-6-(4-chloro-2-fluoro-3-methoxy-phenyl)pyridine-2-carboxylic acid], the “Visual Weed Control (%) - 21 DAA ECHCO Obs” value came to 40% in the assay with ECHCO (8 gae/ha), 70% in the assay on ECHCO (16 gae/ha) and 95% with ECHCO (32 gae/ha). Besides, the “Visual Weed Control (%) - 19 DAA IPOHE Obs” value with IPOHE (4.38 gae/ha) and with IPOHE (8.75 gae/ha) was 0% each time. The “Visual Weed Control (%) - 21 DAA IPOHE Obs” value is listed as 10% with IPOHE (16 gae/ha) and 25% in the assay on IPOHE (32 gae/ha). In the assay on IPOHE (32 gae/ha), the “Visual Weed Control (%) - 22 DAA IPOHE Obs” value was 45%. Moreover, the “Visual Weed Control (%) - 21 DAA ECHCG Obs” value worked out at 15% in the assay on ECHCG (4.38 gae/ha) and 75% in the assay on ECHCG (17.5 gae/ha). Further, the “Visual Weed Control (%) - 22 DAA ECHCG Obs” value in the assay with ECHCG (8 gae/ha) is reported as 50%; with ECHCG (16 gae/ha), 60%; in the assay on ECHCG (32 gae/ha), 99%. Besides, the “Visual Weed Control (%) - 14 DAA LOLMU Obs” value in the assay on LOLMU (Compound A Benzyl Ester 3.75 gae/ha) worked out at 0%; in the assay with LOLMU (Compound A Benzyl Ester 7.5 gae/ha), 10%; in the assay on LOLMU (Compound A Benzyl Ester 15 gae/ha), 10%.

As to `CCCCOC(=O)[C@@H](C)Oc1ccc(Oc2ccc(C#N)cc2F)cc1` [Cyhalofop-butyl, butyl(2R)-2-[4-(4-cyano-2-fluorophenoxy)phenoxy]propanoate, reference compound], in the assay on IPOHE (280 gai/ha), the “Visual Weed Control (%) - 20 DAA IPOHE Obs” value came out at 0%.

Consider `C[C@@H](Oc1ccc(Oc2nc3ccc(Cl)cc3o2)cc1)C(=O)N(C)c1ccccc1F` [Metamifop, (2R)-2-[4-[(6-chloro-2-benzoxazolyl)oxy]phenoxy]-N-(2-fluorophenyl)-N-methylpropanamide], for which the “Visual Weed Control (%) - 22 DAA IPOHE Obs” value in the assay with IPOHE (9.38 gai/ha), with IPOHE (18.75 gai/ha) and in the assay on IPOHE (37.5 gai/ha) was 0% in each case. For the same compound, the “Visual Weed Control (%) - 24 DAA IPOHE Obs” value with IPOHE (150 gai/ha) amounted to 0%.

Turning to `CCC/C(=N\OCC(C)Oc1ccc(Cl)cc1)C1=C(O)CC(C2CCCSC2)CC1=O` (centres unmarked) [Profoxydim, 2-[1-[[2-(4-chlorophenoxy)propoxy]imino]butyl]-3-hydroxy-5-(tetrahydro-2H-thiopyran-3-yl)-2-cyclohexen-1-one, reference compound], the “Visual Weed Control (%) - 20 DAA ECHCO Obs” value in the assay on ECHCO (12.5 gai/ha) is listed as 70%. Moreover, the “Visual Weed Control (%) - 22 DAA ECHCG Obs” value in the assay on ECHCG (50 gai/ha) is reported as 30%.

For the compound `CCOC(=O)[C@@H](C)Oc1ccc(Oc2cnc3cc(Cl)ccc3n2)cc1` [Quizalofop-p-ethyl, ethyl(2R)-2-[4-[(6-chloro-2-quinoxalinyl)oxy]phenoxy]propanoate, reference compound], the “Visual Weed Control (%) - 22 DAA IPOHE Obs” value in the assay on IPOHE (1.88 gai/ha), with IPOHE (3.75 gai/ha) and in the assay with IPOHE (7.5 gai/ha) was 0% in each case. Further, the “Visual Weed Control (%) - 20 DAA IPOHE Obs” value with IPOHE (15 gai/ha) and in the assay with IPOHE (30 gai/ha) was 0% each time. The “Visual Weed Control (%) - 21 DAA ECHCG Obs” value is 50% with ECHCG (15 gai/ha) and 100% in the assay with ECHCG (30 gai/ha). For the same compound, the “Visual Weed Control (%) - 14 DAA LOLMU Obs” value is recorded as 0% in the assay on LOLMU (Quizalofop-p-ethyl 3.56 gae/ha) and 60% in the assay with LOLMU (Quizalofop-p-ethyl 7.125 gae/ha).

For the origin of these results see patent US9232796B2, “Herbicidal compositions comprising 4-amino-3-chloro-5-fluoro-6-(4-chloro-2-fluoro-3-methoxyphenyl) pyridine-2-carboxylic acid or a derivative thereof and acetyl-CoA carboxylase (ACCase) inhibitors” (DOW AGROSCIENCES LLC, priority 2012, dated 2016).
